# Assays:
# [1] = tested on: transplanted tumor of human non-small cell lung cancer cell A549; assay: A549 transplanted tumor in nude mice
# Procedure: (§1) A549 cells in a logarithmic growth phase were taken and subjected to a trypan blue exclusion experiment showing that the cell viability was more than 95%, then the cells were subjected to trypsinization, centrifugation, and supernatant removal. Then cell concentration was adjusted to 1×10^7/ml with matrigel, then each nude mouse was inoculated subcutaneously with 0.2 ml of cells at its right armpit and recorded as the first day of inoculation. When the tumor grows to be greater than or equal to 100 mm^3, the mice were randomly divided into 11 groups with 6 mice in each group: a model group, a cyclophosphamide group, isovaleryl spiramycin I groups with doses of 25, 50 and 100 mg/kg, isovaleryl spiramycin II groups with doses of 25, 50 and 100 mg/kg, and isovaleryl spiramycin III groups with doses of 25, 50 and 100 mg/kg. Each group was continuously administered intragastrically for 30 days with a dose of 20 ml/kg. The mice were sacrificed the next day after drug withdrawal and the indicators were tested. The long diameter and short diameter of the tumor, and the body weight of each mouse were recorded every 3 days from drug administration to nude mouse sacrifice.
# (§2) The body weight of the nude mice and the long diameter (a) and short diameter (b) of the transplanted tumor were measured every 3 days, and the tumor volume (v), relative tumor volume (RTV) and relative tumor proliferation rate (T/C) are calculated respectively according to the following formulas, wherein V=a×b^2/2; RTV=V/V0 (V0 is the tumor volume before administration, V is the tumor volume before sacrifice), and T/C (%)=treatment group RTV/model control group RTV×100%.
# (§3) Each mouse was weighed and sacrificed. After the tumor was completely stripped off from the body of the mouse, the non-tumor tissues such as blood stains and fat were removed to weigh the tumor and calculate the tumor growth inhibition rate. The average tumor weight of each group of mice is used as an indicator of efficacy. Tumor growth inhibition rate (%)=(1−the average tumor weight of the treatment group/the average tumor weight of the model group)×100%.
# [2] = tested on: transplanted tumor of human gastric adenocarcinoma cell SGC7901; assay: SGC7901 transplanted tumor in nude mice
# Procedure: as §1, with “Then” for “A549 cells in a logarithmic growth phase were taken and subjected to a trypan blue exclusion experiment showing that the cell viability was more than 95%, then the cells were subjected to trypsinization, centrifugation, and supernatant removal. Then”
# as §2, §3
# [3] = tested on: human prostate cancer cell PC3; conditions: PC3, MTT, 48 hours
# Procedure: (§4) The purpose of the assay is to evaluate the in vitro cell proliferation inhibition or cytotoxic activity of a tested sample.
# (§5) MCF-7, MDA-MB-231, HepG2, A549, H460, H1299, 786-0, 769-P, U251, A172, HeLa, PC3, PANC-1, TE-1, SGC7901, and HT-29 were adherent tumor cells. The adherent tumor cells in the logarithmic growth phase were selected and digested with trypsin, then were prepared into a 4 to 5×10^4/ml cell suspension by a medium containing 10% fetal bovine serum. And the cell suspension was inoculated in a 96-well culture plate, and each well was 100 μL. The 96-well culture plate was cultured at 37° C. and 5% CO2 for 24 hours. The experimental group was replaced with a new culture medium containing different concentrations of the sample to be tested, namely, isovaleryl spiramycin I, isovaleryl spiramycin II, or isovaleryl spiramycin III, while the control group was replaced with a culture medium containing the same volume of solvent. Each group was set up with 3 parallel wells that were cultured at 37° C. and 5% CO2 for 48 hours. After the supernatant was removed, the wells were washed carefully for 3 times with PBS. And 100 μL of freshly prepared culture medium containing 0.5 mg/ml MTT was added to each well for continuous incubation for 4 hours at 37° C. After the supernatant was removed carefully, 150 μL of DMSO was added to each well, and after the material was mixed for 10 minutes with a micro-oscillator, the optical density value was measured at 492 nm with a microplate reader.
# (§6) The inhibition rate of the medicament on tumor cell growth is calculated according to the following formula:
# (§7) Tumor cell growth inhibition rate (%)=[A492 (negative control)−A492 (dosing group)]/A492 (negative control)×100%
# (§8) And the half-inhibitory concentration (IC50) of the sample is determined therefrom.
# [4] = tested on: human renal cell adenocarcinoma cell 769-P; conditions: MTT, 48 hours
# Procedure: as §4, §5, §6, §7, §8
# [5] = tested on: human gastric adenocarcinoma cell SGC7901; conditions: SGC-7901, MTT, 48 hours
# Procedure: as §4, §5, §6, §7, §8
# [6] = tested on: human glioblastoma cell A172; conditions: A172, MTT, 48 hours
# Procedure: as §4, §5, §6, §7, §8
# [7] = tested on: human non-small cell lung cancer cells A549; conditions: A549, MTT, 48 hours
# Procedure: as §4, §5, §6, §7, §8
# [8] = tested on: human colon cancer cell HT-29; conditions: HT-29, MTT, 48 hours
# Procedure: as §4, §5, §6, §7, §8
# [9] = A549, high dose (100 mg/kg in method) i.g. 30 days
# [10] = A549, low dose (25 mg/kg in method) i.g. 30 days
# [11] = A549, medium dose (50 mg/kg in method) i.g. 30 days
# [12] = SGC7901, 12.5 mg/kg (low dose) i.g. 30 days
# [13] = SGC7901, 25 mg/kg (medium dose) i.g. 30 days
# [14] = SGC7901, 50 mg/kg (high dose) i.g. 30 days
smiles,measurement,setting,value
"O=P1(N(CCCl)CCCl)NCCCO1 (centres unmarked) [Cyclophosphamide, cyclophosphamide, reference compound]",Inhibition Rate (%),"[1]; A549 nude mice, 30 mg/kg",70.59%
same,Relative Tumor Proliferation Rate (T/C),"[1]; A549 nude mice, 30 mg/kg",39.73%
same,Relative Tumor Volume (RTV),"[1]; A549 nude mice, 30 mg/kg",9.47 ± 2.91
same,Tumor Weight,"[1]; A549 nude mice, 30 mg/kg",0.70 ± 0.39 g
same,Body Weight (g) (d1),"[1]; A549 nude mice, 30 mg/kg, d1",21.89 ± 1.22 g
same,Tumor Volume (mm3) (d 1),"[1]; A549 nude mice, 30 mg/kg, d1",115.15 ± 10.00 mm3
same,Body Weight (g) (d30),"[1]; A549 nude mice, 30 mg/kg, d30",19.27 ± 1.49 g
same,Tumor Volume (mm3) (d30),"[1]; A549 nude mice, 30 mg/kg, d30",733.89 ± 352.79 mm3
same,Body Weight (d 1),"[2]; SGC7901, 30 mg/kg i.g. 30 days",22.63 ± 1.35 g
same,Body Weight (d 30),"[2]; SGC7901, 30 mg/kg i.g. 30 days",19.85 ± 0.72 g
same,Inhibition Rate (tumor growth inhibition rate),"[2]; SGC7901, 30 mg/kg i.g. 30 days",72.26%
same,Relative Tumor Proliferation Rate (T/C),"[2]; SGC7901, 30 mg/kg i.g. 30 days",30.71%
same,Relative Tumor Volume (RTV),"[2]; SGC7901, 30 mg/kg i.g. 30 days",4.27 ± 2.36
same,Tumor Volume (d 1),"[2]; SGC7901, 30 mg/kg i.g. 30 days",252.63 ± 74.57 mm3
same,Tumor Volume (d 30),"[2]; SGC7901, 30 mg/kg i.g. 30 days",865.27 ± 422.15 mm3
same,Tumor Weight,"[2]; SGC7901, 30 mg/kg i.g. 30 days",0.44 ± 0.41 g
"CO[C@@H]1[C@@H](O[C@@H]2O[C@H](C)[C@@H](O[C@H]3C[C@@](C)(O)[C@@H](OC(=O)CC(C)C)[C@H](C)O3)[C@H](N(C)C)[C@H]2O)[C@@H](CC=O)C[C@@H](C)[C@@H](O[C@H]2CC[C@H](N(C)C)[C@@H](C)O2)/C=C/C=C/C[C@@H](C)OC(=O)C[C@H]1O [Isovaleryl spiramycin I, isovaleryl spiramycin I]",Relative Tumor Proliferation Rate (T/C),[1]; [9],28.35%
same,tumor growth inhibition rate,[1]; [9],69.52%
same,Relative Tumor Proliferation Rate (T/C),[1]; [10],67.18%
same,tumor growth inhibition rate,[1]; [10],24.00%
same,tumor volume and relative tumor volume compared with the model group,"[1]; A549, low, medium and high doses, P<0.05",significantly lower
same,Relative Tumor Proliferation Rate (T/C),[1]; [11],41.93%
same,tumor growth inhibition rate,[1]; [11],58.10%
same,Inhibition Rate (%),"[1]; A549 nude mice, 25 mg/kg",24.00%
same,Relative Tumor Proliferation Rate (T/C),"[1]; A549 nude mice, 25 mg/kg",67.18%
same,Relative Tumor Volume (RTV),"[1]; A549 nude mice, 25 mg/kg",10.91 ± 2.63
same,Tumor Weight,"[1]; A549 nude mice, 25 mg/kg",1.82 ± 0.19 g
same,Tumor Volume (mm3) (d 1),"[1]; A549 nude mice, 25 mg/kg, d1",111.89 ± 12.17 mm3
same,Tumor Volume (mm3) (d30),"[1]; A549 nude mice, 25 mg/kg, d30",1227.24 ± 329.84 mm3
same,Inhibition Rate (%),"[1]; A549 nude mice, 50 mg/kg",58.10%
same,Relative Tumor Proliferation Rate (T/C),"[1]; A549 nude mice, 50 mg/kg",39.42%
same,Relative Tumor Volume (RTV),"[1]; A549 nude mice, 50 mg/kg",6.40 ± 1.75
same,Tumor Weight,"[1]; A549 nude mice, 50 mg/kg",1.00 ± 0.44 g
same,Tumor Volume (mm3) (d 1),"[1]; A549 nude mice, 50 mg/kg, d1",119.73 ± 5.73 mm3
same,Tumor Volume (mm3) (d30),"[1]; A549 nude mice, 50 mg/kg, d30",750.44 ± 220.77 mm3
same,Inhibition Rate (%),"[1]; A549 nude mice, 100 mg/kg",69.52%
same,Relative Tumor Proliferation Rate (T/C),"[1]; A549 nude mice, 100 mg/kg",28.35%
same,Relative Tumor Volume (RTV),"[1]; A549 nude mice, 100 mg/kg",4.60 ± 3.69
same,Tumor Weight,"[1]; A549 nude mice, 100 mg/kg",0.73 ± 0.45 g
same,Tumor Volume (mm3) (d 1),"[1]; A549 nude mice, 100 mg/kg, d1",110.27 ± 11.43 mm3
same,Tumor Volume (mm3) (d30),"[1]; A549 nude mice, 100 mg/kg, d30",475.83 ± 355.37 mm3
same,mouse weight compared with the model group,"[1]; mouse, in vivo",no significant changes
same,Body Weight (g) (d1),"[1]; mouse, in vivo, 25 mg/kg",21.54 ± 1.27 g
same,Body Weight (g) (d30),"[1]; mouse, in vivo, 25 mg/kg",24.20 ± 1.33 g
same,Body Weight (g) (d1),"[1]; mouse, in vivo, 50 mg/kg",21.48 ± 1.46 g
same,Body Weight (g) (d30),"[1]; mouse, in vivo, 50 mg/kg",25.56 ± 1.67 g
same,Body Weight (g) (d1),"[1]; mouse, in vivo, 100 mg/kg",21.36 ± 1.82 g
same,Body Weight (g) (d30),"[1]; mouse, in vivo, 100 mg/kg",24.47 ± 1.98 g
same,IC50,[3],9.39 ± 0.85 µg/mL
same,IC50,[4],5.09 ± 0.04 µg/mL
same,IC50,[5],11.28 ± 1.27 µg/mL
same,IC50,[6],10.24 ± 0.37 µg/mL
same,IC50,[7],19.93 ± 1.66 µg/mL
same,IC50,[8],17.30 ± 0.52 µg/mL
same,Inhibition Rate (tumor growth inhibition rate),[2]; [12],31.56%
same,Relative Tumor Proliferation Rate (T/C),[2]; [12],61.13%
same,Relative Tumor Volume (RTV),[2]; [12],5.37 ± 3.46
same,Tumor Volume (d 1),[2]; [12],412.96 ± 157.62 mm3
same,Tumor Volume (d 30),[2]; [12],2815.50 ± 770.23 mm3
same,Tumor Weight,[2]; [12],1.07 ± 0.53 g
same,Inhibition Rate (tumor growth inhibition rate),[2]; [13],53.13%
same,Relative Tumor Proliferation Rate (T/C),[2]; [13],42.67%
same,Relative Tumor Volume (RTV),[2]; [13],3.98 ± 2.78
same,Tumor Volume (d 1),[2]; [13],258.63 ± 104.26 mm3
same,Tumor Volume (d 30),[2]; [13],1230.76 ± 635.23 mm3
same,Tumor Weight,[2]; [13],0.74 ± 0.52 g
same,Inhibition Rate (tumor growth inhibition rate),[2]; [14],70.78%
same,Relative Tumor Proliferation Rate (T/C),[2]; [14],20.23%
same,Relative Tumor Volume (RTV),[2]; [14],3.64 ± 1.65
same,Tumor Volume (d 1),[2]; [14],279.56 ± 156.70 mm3
same,Tumor Volume (d 30),[2]; [14],630.69 ± 458.86 mm3
same,Tumor Weight,[2]; [14],0.46 ± 0.36 g
same,tumor volume and relative tumor volume compared with the model group,"[2]; SGC7901, low, medium and high doses, P<0.05",significantly lower
same,mouse weight compared with the model group,"[2]; mouse, in vivo",no significant changes

# — patent US20200163984A1, “USE OF ISOVALERYL SPIRAMYCIN I, II AND/OR III IN MANUFACTURING MEDICAMENT FOR TREATING AND/OR PREVENTING TUMOR, AND MEDICAMENT” (SHENYANG FUYANG PHARMACEUTICAL TECHNOLOGY CO., LTD., priority 2017, published 2020)
